Data published in PMC10320002, “In vitro antiproliferative, anti-inflammatory effects and molecular docking studies of natural compounds isolated from Sarcocephalus pobeguinii (Hua ex Pobég)” (Frontiers in Pharmacology, 2023).
“And” between values parts separate entries of the source, which are not always exact repeats. Identical values can stand only once.

Assays:
A549 cells = experiment: MTT antiproliferation assay, A549; format: cell-based, human; conditions: for IC50: Homo sapiens, A549, 48 h, MTT; for SI values A549: IC50 of non-cancerous Vero cells divided by IC50 of A549
Procedure: (§1) Cancerous cell lines (MCF-7: human breast adenocarcinoma cells; HepG2: human hepatocellular carcinoma cells; Caco-2: human epithelial colorectal adenocarcinoma cells; A549: human epithelial lung adenocarcinoma cells), obtained from the American Type Culture Collection (ATCC) (Rockville, MD, United States of America), were cultured in Dulbecco’s Modified Eagle’s Medium (DMEM) high glucose (4.5 g/L) containing L-glutamine (4 mM) and sodium-pyruvate (Hyclone™) supplemented with 10% (v/v) fetal bovine serum (FBS) (Capricorn Scientific GmbH, South America), and incubated at 37°C with 5% CO2 in a humidified environment. African green monkey (Vero) kidney cells (also obtained from ATCC), a non-cancerous cell line, were grown in DMEM high glucose (4.5 g/L) containing L-glutamine (Lonza, Belgium) and supplemented with 5% FBS (Capricorn Scientific GmbH, South America) and 1% gentamicin (Virbac, RSA) in the same environment as cancer cells. The RAW 264.7 murine macrophage cells (obtained from ATCC) were cultured in DMEM high glucose (4.5 g/L) containing L-glutamine (Lonza, Belgium), supplemented with 10% FBS (Capricorn Scientific GmbH, South America) and 1% penicillin/streptomycin/fungizone (PSF) solution, and kept at 37°C in a 5% CO2 humidified environment.
(§2) The cancerous and non-cancerous cells were seeded at a density of 10^4 cells per well in 96-well microtiter plates, and they were incubated overnight at 37°C with 5% CO2 in a 5% CO2 humidified environment in order to allow the attachment of cells at the bottom of the plates. Then, the cells were exposed to increasing concentrations of compounds (100, 50, 25, 10 and 5 μg/mL) dissolved in dimethyl sulfoxide (DMSO) and further diluted in fresh culture medium. In this assay, the final concentration of DMSO in the culture medium was 0.5% used as negative control while doxorubicin hydrochloride (Pfizer, United States of America) was used as a positive control. The culture plates were incubated for 48 h at 37°C in a 5% CO2 humidified environment, after which the culture medium was discarded, and replaced by 200 µL of fresh culture medium with 30 µL of 3-(4,5-dimethylthiazol-2-yl)-2,5-diphenyl-2H-tetrazolium bromide (MTT) (5 mg/mL) dissolved in phosphate buffered saline ([Mosmann, 1983]). After 4 h of incubation, the medium was gently removed, and the formazan crystals were solubilized in 50 µL of DMSO. The absorbance was measured at 570 nm after shaking for 1 min on a microplate reader (Synergy Multi-Mode Reader, BioTek, Winooski, United States of America).
(§3) The cell viability rate was determined at each concentration of the compound as a percentage of cells treated with DMSO at 0.5% used as negative control. […] The selectivity index (Supporting Material) values were calculated for each compound by dividing the IC50 of non-cancerous cells by the IC50 of cancerous cells in the same units ([Mfotie Njoya et al., 2018]; [Mfotie Njoya et al., 2020]).

[1] = tested on: NO production in LPS-stimulated RAW 264.7 cells; experiment: Nitric oxide production inhibitory assay (Griess) in LPS-stimulated RAW 264.7 cells; format: cell-based, murine; conditions: for reduction of NO production: 100 μg/mL; for IC50: Mus musculus, RAW264.7, LPS (2 μg/mL), 24 h
Procedure: as §1
Nitric oxide (NO) production was evaluated in lipopolysaccharide (LPS)-stimulated RAW 264.7 cells by measuring the influence of tested compounds on the accumulation of nitrite, an indicator of NO in the cell supernatant, which can be detected with Griess reagent (Merck, Darmstadt, Germany). Briefly, the RAW 264.7 cells at their exponential growth phase were seeded at a density of 2×10^4 cells per well in 96 well-microtiter plates, and they were incubated overnight at 37°C in a 5% CO2 humidified environment to allow attachment. […] Then, culture medium containing LPS (2 μg/mL) was added to each well and further incubated for 24 h at 37°C in a 5% CO2 humidified environment. Thereafter, 100 μL of cell supernatant from each well were transferred into a new 96-well microtiter plate and an equal volume of Griess reagent was added according to protocol described by the manufacturer. The microtiter plate was incubated for 10 min in the dark at room temperature, and the absorbance of the mixture was measured at 550 nm on a microplate reader (Synergy Multi-Mode Reader, BioTek, Winooski, United States of America). The quantity of nitrite was determined from a sodium nitrite standard curve, and the percentage of NO production was calculated based on the ability of each tested sample to inhibit nitric oxide production by LPS-stimulated RAW 264.7 cells compared to the control (cells treated with LPS without samples which was considered as 100% NO production). Additionally, the cell viability of treated cells was determined by using the MTT assay as previously described ([Mosmann, 1983]).

Caco-2 cells = experiment: MTT antiproliferation assay, Caco-2; format: cell-based, human; conditions: for IC50: Homo sapiens, Caco-2, 48 h, MTT; for SI values Caco-2: IC50 of non-cancerous Vero cells divided by IC50 of Caco-2
Procedure: as §1, §2, §3

HepG2 cells = experiment: MTT antiproliferation assay, HepG2; format: cell-based, human; conditions: for IC50: Homo sapiens, HepG2, 48 h, MTT; for SI values HepG2: IC50 of non-cancerous Vero cells divided by IC50 of HepG2
Procedure: as §1, §2, §3

RAW 264.7 cells = experiment: MTT cell viability of LPS-stimulated RAW 264.7 cells; format: cell-based, murine; conditions: 100 μg/mL
Procedure: as §1, with “The RAW 264.7 murine macrophage cells (obtained from ATCC) were cultured in DMEM high glucose (4.5 g/L) containing L-glutamine (Lonza, Belgium), supplemented with 10% FBS (Capricorn Scientific GmbH, South America) and 1% penicillin/streptomycin/fungizone (PSF) solution, and kept at 37°C in a 5% CO2 humidified environment.” left out
Nitric oxide (NO) production was evaluated in lipopolysaccharide (LPS)-stimulated RAW 264.7 cells by measuring the influence of tested compounds on the accumulation of nitrite, an indicator of NO in the cell supernatant, which can be detected with Griess reagent (Merck, Darmstadt, Germany). […] The microtiter plate was incubated for 10 min in the dark at room temperature, and the absorbance of the mixture was measured at 550 nm on a microplate reader (Synergy Multi-Mode Reader, BioTek, Winooski, United States of America). The quantity of nitrite was determined from a sodium nitrite standard curve, and the percentage of NO production was calculated based on the ability of each tested sample to inhibit nitric oxide production by LPS-stimulated RAW 264.7 cells compared to the control (cells treated with LPS without samples which was considered as 100% NO production). Additionally, the cell viability of treated cells was determined by using the MTT assay as previously described ([Mosmann, 1983]).

Row | IC50 (A549 cells) | IC50 [1] | IC50 (Caco-2 cells) | IC50 (HepG2 cells) | SMILES | SI values A549 (A549 cells) | reduction of NO production [1] | SI values Caco-2 (Caco-2 cells) | SI values HepG2 (HepG2 cells) | cell viability of LPS-stimulated RAW 264.7 cells (RAW 264.7 cells)
1 | 3.08 µM and 1.96 µg/mL | 18.2 µg/mL and 28.7 µM | 7.41 µg/mL and 11.7 µM | 41.9 µg/mL and 66.3 µM | C[C@@H]1CC[C@]2(C(=O)O)CC[C@]3(C(=O)O)C(=CCC4[C@@]5(C)CC[C@H](O[C@H]6O[C@H](C)[C@@H](O)[C@H](O)[C@H]6O)C(C)(C)C5CC[C@]43C)C2[C@H]1C (stereo partly drawn) [Compound 6, quinovic acid 3-O-[α-D-quinovopyranoside]] | 3.17 | at least 50% | 0.83 | 0.14 | significantly (p < 0.05) reduced the cell viability
2 | 69.9 µM and 44.2 µg/mL | 49 µg/mL and 77.4 µM | 53.7 µg/mL and 84.8 µM | 47.2 µg/mL and 74.6 µM | C[C@@H]1CC[C@]2(C(=O)O)CC[C@]3(C(=O)O)C(=CCC4[C@@]5(C)CC[C@H](O[C@@H]6O[C@H](C)[C@@H](O)[C@H](O)[C@H]6O)C(C)(C)C5CC[C@]43C)C2[C@H]1C (stereo partly drawn) [Compound 9, quinovic acid 3-O-[β-D-quinovopyranoside]] | 1.06 | at least 50% | 0.88 | 0.99 | significantly (p < 0.05) reduced the cell viability
3 | 143 µM and 44.2 µg/mL | > 100 µg/mL and > 324 µM | 63.2 µg/mL and 205 µM | 54.5 µg/mL and 177 µM | C[C@]12COCC=C1C[C@H]1c3[nH]c4ccccc4c3CCN1C2=O [Compound 10, latifoliamide C] | 1.49 |  | 1.04 | 1.20 | 

Row | SMILES | IC50 (A549 cells) | IC50 [1] | IC50 (Caco-2 cells) | IC50 (HepG2 cells) | SI values A549 (A549 cells) | reduction of NO production [1] | SI values Caco-2 (Caco-2 cells) | SI values HepG2 (HepG2 cells) | cell viability of LPS-stimulated RAW 264.7 cells (RAW 264.7 cells)
4 | CC1(C)CC[C@]2(C(=O)O)CC[C@]3(C)C(=CC[C@@H]4[C@@]5(C)CC[C@H](O)[C@@](C)(CO)[C@@H]5CC[C@]43C)[C@@H]2C1 [Compound 2, hederagenin] | 40.1 µM and 19 µg/mL | 65.1 µg/mL and 138 µM | 36.7 µg/mL and 77.6 µM | 24.9 µg/mL and 52.6 µM | 2.40 | at least 50% | 1.24 | 1.83 | significantly (p < 0.05) reduced the cell viability
